These results are taken from patent US20160081947A1, “SELECTIVE LSD1 AND DUAL LSD1/MAO-B INHIBITORS FOR MODULATING DISEASES ASSOCIATED WITH ALTERATIONS IN PROTEIN CONFORMATION” (ORYZON GENOMICS S.A., priority 2010, published 2016).

One series relates to SH-SY5Y cells. The series can be described thus: Western blot for dimethylated H3K4 in SH-SY5Y cells. It counts as cell-based. From the text:
B-actin was used as a loading control.
On the technique in general: A western blot detects proteins with antibodies after separation by electrophoresis.

The test system of series [1] is R6/2 mice. The series can be described thus: Two-choice swim test in R6/2 mouse. It counts as in vivo. The following applies: transgenic R6/2 mice. An excerpt:
Eighty male and female R6/2 mice and 20 male and female wild-type littermate control mice (F1 generation) will be bred by Cerebricon at FELASA compliant National Animal Facility Center Kuopio by mating (F0 generation) WT males (C57BL6CBA F1 hybrid, JAX) with ovarian transferred (01) TG females (JAX). Breeder animals receive igloos instead of play tunnels, nylabone and cotton nestlets and use Purina diet 5008. Upon weaning, pups receive Purina diet 5001.
Sertraline will be made fresh daily by diluting to 1% TWEEN® 80 in ddH2°.
Two-Choice Swim Test: The two-choice swim test is performed at age week 9. The swim tank (dimensions: 70 cm×30 cm×30 cm) is filled with water (26±1° C.) no higher than 1 cm from the top of a hidden escape platform. The hidden cylindrical platform (diameter, 6.0 cm, height,˜9 cm) is placed either at right or left end of the tank. During acquisition of the task, each mouse is given six training trials per day to swim towards or away from the right end (counterbalanced across subjects) to escape onto the platform. […] A choice is recorded when a mouse moves towards one end and swims beyond 20 cm from the center. If the mouse fails to make a choice within about 15 minutes a “no choice” is recorded. […] In all trials, choice, latency and “no choice” are recorded.

Series [2] in a line: Body weight loss in chronically treated R6/2 mouse. Type of series: in vivo. The following applies: R6/2 mice, 5 mg/kg or 10 mg/kg IP per day, chronic. From the text:
More easily measured is body weight loss.
In the R6/2 mouse study described above the weight of the animals were monitored to determine if the LSD1 or LSD1/MAO-B dual inhibitor cause weight loss in chronically treated animals. […] .

The test system of a further series is mouse haloperidol model. The series can be described thus: Mouse haloperidol model of catalepsy. The following applies: control caffeine. It counts as in vivo. From the text:
See, e.g., East et al. (2010), Bioorg. Med Chem. Lett., August 15; 20(16):4901-5, Epub 2010 Jun. 25.

In series [3] the test system is R6/2 mice. The series can be described thus: Longevity / survival study in R6/2 mouse. To be noted: for survival versus vehicle and sertraline treated animals: 10 mg/kg.
Procedure: The solutions are made and stored according to instructions provided by the sponsor (storage conditions and expiration day of solution).
Body weight is measured starting at age of four weeks and two times per week on the same day (i.e., Monday and Thursday) until end of the study. For convenience this is done just prior to animals receiving doses for those days. Animals are monitored twice-a-day by laboratory personnel (8 am and 4 pm) for “survival.” It is most optimal to measure “true survival” that is when the mouse has no detectable heartbeat. Since IACUC restrictions prevent this then using a definable and quantifiable endpoint for “survival” need to be used (see section 2.7 humane end-points). […] For instance, body temperature changes can drop just before death but many R6/2 mice show spontaneous death without preceding body temperature changes. More easily measured is body weight loss. […] Again mice that die spontaneously may not show such acute body weight changes. For these alternative measures combining these “survival” data (body weight or temperature decrease) with “survival” of spontaneous death mice (age found dead in a cage) is suitable.
For series [4], the target named is T1, Human recombinant monoamine oxidase MAO-A (Homo sapiens, UniProt P21397).
T1 construct: purchased Sigma Aldrich
T1 sequence (P21397 1-527): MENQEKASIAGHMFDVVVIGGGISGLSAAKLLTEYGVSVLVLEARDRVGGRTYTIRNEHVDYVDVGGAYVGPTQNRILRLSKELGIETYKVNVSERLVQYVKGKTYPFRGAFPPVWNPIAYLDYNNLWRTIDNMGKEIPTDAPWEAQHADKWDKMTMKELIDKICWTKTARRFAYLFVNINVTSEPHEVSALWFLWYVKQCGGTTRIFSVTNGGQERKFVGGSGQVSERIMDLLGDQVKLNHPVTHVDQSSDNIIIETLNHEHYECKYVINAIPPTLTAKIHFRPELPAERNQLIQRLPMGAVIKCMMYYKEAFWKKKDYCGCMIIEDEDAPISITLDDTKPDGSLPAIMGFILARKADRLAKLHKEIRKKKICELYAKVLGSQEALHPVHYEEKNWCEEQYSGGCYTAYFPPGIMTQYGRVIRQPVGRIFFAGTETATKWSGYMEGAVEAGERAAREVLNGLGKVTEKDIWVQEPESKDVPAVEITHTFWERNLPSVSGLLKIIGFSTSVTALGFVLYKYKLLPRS
The series can be described thus: MAO-A inhibition assay (kynuramine fluorescence). Type of series: biochemical. An excerpt: Human recombinant monoamine oxidase proteins MAO-A and MAO-B were purchased from Sigma Aldrich. MAOs catalyze the oxidative deamination of primary, secondary and tertiary amines. In order to monitor MAO enzymatic activities and/or their inhibition rate by inhibitor(s) of interest, a fluorescent-based (inhibitor)-screening assay was set up. 3-(2-Aminophenyl)-3-oxopropanamine (kynuramine dihydrobromide, Sigma Aldrich), a non fluorescent compound was chosen as a substrate. Kynuramine is a non-specific substrate for both MAOs activities. While undergoing oxidative deamination by MAO activities, kynuramine is converted into 4-hydroxyquinoline (4-HQ), a resulting fluorescent product.
The monoamine oxidase activity was estimated by measuring the conversion of kynuramine into 4-hydroxyquinoline. Assays were conducted in 96-well black plates with clear bottom (Corning) in a final volume of 100 μL. The assay buffer was 100 mM HEPES, pH 7.5. Each experiment was performed in triplicate within the same experiment. […] The conversion of kynuramine to 4-hydroxyquinoline, was monitored by fluorescence (excitation at 320 nm, emission at 360 nm) using a microplate reader (Infinite 200, Tecan). Arbitrary units were used to measure levels of fluorescence produced in the absence and/or in the presence of inhibitor. […] The Ki (TC50) of each inhibitor was determined at Vmax/2.

For series [5], the system named is Drosophila melanogaster expressing HD-Q120. The series can be described thus: Eye (rhabdomere) degeneration in Huntington disease fly line B-8533. The following applies: 1 μM and 5 μM. It counts as in vivo. From the text: The eye of the fruit fly, Drosophila melanogaster, provides an ideal model system for studying neuronal survival. Each eye consists of approximately 800 units called ommatidia arranged in a regular pattern and the photoreceptors that compose each ommatidium exist in an ordered trapezoidal array. The presence and organization of these cells can be readily assessed using a technique called optical neutralization of the cornea (Franceschini and Kirschfeld, 1971).
This technique is being used in a screen for compounds that can rescue the neurodegenerative phenotype of a Drosophila model of Huntingtons disease (HD), fly line B-8533 (Jackson et al., 1998). This line contains a P-element construct inserted on the second chromosome, P{w+ gmr.HD-Q120)}. The construct contains a w+ visible eye-color marker, which enables confirmation of the presence of the insertion. […]
The now three- to ten-day-old flies are added to the vials (six to ten females and three males in each), incubated at 25° for seven to ten days. […] F1 eclosion-start date is noted and males and females are counted. […] Ommatidia are scored for number of visible rhabdomeres (0 to 7). […] Significance can be determined by the Mann-Whitney U-test or one-tailed student's T-test. […]

Entries after “also recorded” stand apart in the source; their conditions may differ. Where two headings read alike, the source gives them in different places. A value given as a limit tells only on which side of the number the result lay.

Consider `NC(=O)CNC1CC1c1ccc(OCc2ccccc2)cc1` (stereo not shown) [Compound Dual-1], for which, in the series with SH-SY5Y cells (100 μM, one, two and three days), the “levels of dimethylated H3K4 (western blot)” value is reported as “increases H3K4 methylation in cells in a time dependent manner; also recorded: increases levels of dimethylated H3K4 in cells in a time dependent manner”. Moreover, in the series with SH-SY5Y cells (Dual-1 100 μM vs parnate 250 μM), the “potency at increasing global dimethylated H3K4 levels as compared to tranylcypromine” value is “ten-fold or more potent”. Moreover, in the series on R6/2 mice [1] (5 mg/kg ip), the “other parameters of two-choice swim test” value is on record as “clear trend (NS)”. Further, in the series with R6/2 mice [1] (5 mg/kg ip once-a-day, age week 9, 5 mg/kg), the “performance in two-choice swim test (latency to find the platform)” value is recorded as “significantly improved the performance; also recorded: improved response in the two-choice swim test”. The “body weight loss compared to transgenic animals treated with vehicle or sertraline” value in series [2] is on record as “caused no significant weight loss; also recorded: did not have substantially different weight losses”. For the same compound, in the series on mouse haloperidol model, the “rescue of toxin induced deficit (catalepsy)” value was “rescue the toxin induced deficit in a manner similar to or better than control compound caffeine or no treatment”. Moreover, in the series on R6/2 mice [3] (R6/2 mouse study), the “longevity (overall survival)” value was “can increase the longevity”. Besides, the “survival versus vehicle and sertraline treated animals” value is recorded as “survived longer” in the series on R6/2 mice [3] (female R6/2 mice); “survived longer” in the series with R6/2 mice [3] (male and female R6/2 mice).
The term IC50 denotes the point on the concentration scale where inhibition reaches its midpoint. Consider `CN1CCN(C(=O)CNC2CC2c2ccc(OCc3ccccc3)cc2)CC1` (stereo not shown) [Compound Selective-1], for which, in series [4], the IC50 is greater than 1 µM. In addition, the “rhabdomere degeneration as compared to vehicle treated flies” value in series [5] (day 2) is “reduced rhadomere degeneration”. Besides, the “rescue of eye degeneration phenotype as compared to vehicle treated fly” value in series [5] (day not stated) is reported as “in a concentration dependent manner rescues the eye degeneration phenotype”.
Take `CN1CCN(C(=O)CNC2CC2c2ccc(C3CC3)cc2)CC1` (stereo not shown) [Selective-2]: the IC50 in series [4] (read-out: MAO-A IC50) is greater than 1 µM.
